Measurements: US20260191807A1, “COMPOSITIONS AND METHODS FOR TREATMENT OF PRADER-WILLI SYNDROME” (ERX Pharmaceuticals Inc., priority 2022, published 2026)

Tests used:
C57BL/6-Magel2 mice [1] = assay: Body weights of C57BL/6 Magel2 mice during daily treatment; format: in vivo; conditions: 0.2 mg/kg IP QD; for Body weights (expressed as a percentage of day-1 weight) / Body weights (in grams): mean; for body weight lost from day 1 to day 21: vehicle +2.7%
Experimental: (§1) In the study disclosed herein, celastrol at was administered intraperitoneally using a 30G needle at a dose of 0.2 mg/kg to five female Magel2 homozygous mice (−/−) and four male mice heterozygous for Magel2 (−/+). In addition, vehicle was administered to four male mice heterozygous for Magel2 (−/+) for 21 days.
(§2) C57BL/6-Magel2 mice were bred for purpose from cryo recovery by Jackson Labs (Bar Harbor, ME) and arrived at the testing facility at age 8 weeks.
(§3) All treatment volumes were 10 mL/kg. Utilizing the art-recognized nestlet shredding mouse model, the dose was administered by gavage (as capsule dosing is challenging in mice). Celastrol and the vehicle control were administered intraperitoneally using a 30G needle. All treatments were administered daily in the afternoon at 17:00 h, 1 hour before dark cycle from Day 1 to end of dosing.
(§4) Celastrol was dissolved in 50% Solutol/50% DMAC. The resulting stock solution aliquoted and stored at −80° C. until treatment day. On the day of treatment an aliquot of the stock solution was thawed and diluted 1:20 with saline to obtain the desired dosing solution strength in 5%
Mouse body weights were recorded from an Ohaus model CS 200 balance. Mice were weighed daily on Day 1 to Day 21. Body weight changes are expressed as grams and percent of the initial body weight (on Day 1, when treatments began).

C57BL/6-Magel2 mice [2] = assay: Daily food intake of C57BL/6 Magel2 mice; format: in vivo; conditions: for Food intake (food weights in g/day): mean
Experimental: as §1, §2, §3, §4
Daily food intake was calculated based on remaining food weight compared to food weight on the previous day using an Ohaus model CS 200 balance.

[3] = Day 17, Magel2 (−/−) homozygous female mice
[4] = Day 18, Magel2 (−/+) heterozygous male mice
[5] = Day 18, Magel2 (−/−) homozygous female mice
[6] = Day 20, Magel2 (−/+) heterozygous male mice
[7] = Day 20, Magel2 (−/−) homozygous female mice
[8] = Day 21, Magel2 (−/+) heterozygous male mice
[9] = Day 21, Magel2 (−/−) homozygous female mice

With `CC1=C(O)C(=O)C=C2C1=CC=C1[C@@]2(C)CC[C@@]2(C)[C@@H]3C[C@](C)(C(=O)O)CC[C@]3(C)CC[C@]12C` [Celastrol] the “Body weights (expressed as a percentage of day-1 weight)” value (C57BL/6-Magel2 mice [1]; [3]) was 85.3%, the “Body weights (in grams)” value (C57BL/6-Magel2 mice [1]; [3]) was 17.5 grams and the “Body weights (expressed as a percentage of day-1 weight)” value (C57BL/6-Magel2 mice [1]; [4]) was 83.0%. For the same compound, the “Body weights (in grams)” value (C57BL/6-Magel2 mice [1]; [4]) was 22.1 grams, the “Body weights (expressed as a percentage of day-1 weight)” value (C57BL/6-Magel2 mice [1]; [5]) was 85.6% and the “Body weights (in grams)” value (C57BL/6-Magel2 mice [1]; [5]) was 17.6 grams. The “Body weights (expressed as a percentage of day-1 weight)” value (C57BL/6-Magel2 mice [1]; [6]) was 84.5%, the “Body weights (in grams)” value (C57BL/6-Magel2 mice [1]; [6]) was 22.5 grams and the “Body weights (expressed as a percentage of day-1 weight)” value (C57BL/6-Magel2 mice [1]; [7]) was 88.8%. For the same compound, the “Body weights (in grams)” value (C57BL/6-Magel2 mice [1]; [7]) was 18.3 grams, the “Body weights (expressed as a percentage of day-1 weight)” value (C57BL/6-Magel2 mice [1]; [8]) was 83.8% and the “Body weights (in grams)” value (C57BL/6-Magel2 mice [1]; [8]) was 22.3 grams. The “Body weights (expressed as a percentage of day-1 weight)” value (C57BL/6-Magel2 mice [1]; [9]) was 89.6%, the “Body weights (in grams)” value (C57BL/6-Magel2 mice [1]; [9]) was 18.4 grams and the “body weight lost from day 1 to day 21” value (C57BL/6-Magel2 mice [1]; female homozygous Magel2 (−/−) mice) was 10.4%. The “body weight lost from day 1 to day 21” value (C57BL/6-Magel2 mice [1]; male heterozygous Magel2 (−/+) mice) was 16.2%, the “Food intake (food weights in g/day)” value (C57BL/6-Magel2 mice [2]; Day 1, Magel2 (−/+) heterozygous male mice, 0.2 mg/kg IP QD) was 6.6 g/day and the “Food intake (food weights in g/day)” value (C57BL/6-Magel2 mice [2]; Day 1, Magel2 (−/−) homozygous female mice, 0.2 mg/kg IP QD) was 5.9 g/day. The “Food intake (food weights in g/day)” value (C57BL/6-Magel2 mice [2]; Day 2, Magel2 (−/+) heterozygous male mice, 0.2 mg/kg IP QD) was 4.9 g/day, the “Food intake (food weights in g/day)” value (C57BL/6-Magel2 mice [2]; Day 2, Magel2 (−/−) homozygous female mice, 0.2 mg/kg IP QD) was 5.9 g/day and the “Food intake (food weights in g/day)” value (C57BL/6-Magel2 mice [2]; Day 4, Magel2 (−/+) heterozygous male mice, 0.2 mg/kg IP QD) was 7.0 g/day. The “Food intake (food weights in g/day)” value (C57BL/6-Magel2 mice [2]; Day 4, Magel2 (−/−) homozygous female mice, 0.2 mg/kg IP QD) was 6.4 g/day, the “Food intake (food weights in g/day)” value (C57BL/6-Magel2 mice [2]; Day 6, Magel2 (−/+) heterozygous male mice, 0.2 mg/kg IP QD) was 6.3 g/day and the “Food intake (food weights in g/day)” value (C57BL/6-Magel2 mice [2]; Day 6, Magel2 (−/−) homozygous female mice, 0.2 mg/kg IP QD) was 6.2 g/day. The “Food intake (food weights in g/day)” value (C57BL/6-Magel2 mice [2]; Day 8, Magel2 (−/+) heterozygous male mice, 0.2 mg/kg IP QD) was 5.2 g/day, the “Food intake (food weights in g/day)” value (C57BL/6-Magel2 mice [2]; Day 8, Magel2 (−/−) homozygous female mice, 0.2 mg/kg IP QD) was 4.6 g/day and the “Food intake (food weights in g/day)” value (C57BL/6-Magel2 mice [2]; Day 10, Magel2 (−/+) heterozygous male mice, 0.2 mg/kg IP QD) was 3.1 g/day. The “Food intake (food weights in g/day)” value (C57BL/6-Magel2 mice [2]; Day 10, Magel2 (−/−) homozygous female mice, 0.2 mg/kg IP QD) was 2.4 g/day, the “Food intake (food weights in g/day)” value (C57BL/6-Magel2 mice [2]; Day 11, Magel2 (−/+) heterozygous male mice, 0.2 mg/kg IP QD) was 3.9 g/day and the “Food intake (food weights in g/day)” value (C57BL/6-Magel2 mice [2]; Day 11, Magel2 (−/−) homozygous female mice, 0.2 mg/kg IP QD) was 1.4 g/day. For the same compound, the “Food intake (food weights in g/day)” value (C57BL/6-Magel2 mice [2]; Day 13, Magel2 (−/+) heterozygous male mice, 0.2 mg/kg IP QD) was 5.1 g/day, the “Food intake (food weights in g/day)” value (C57BL/6-Magel2 mice [2]; Day 13, Magel2 (−/−) homozygous female mice, 0.2 mg/kg IP QD) was 4.0 g/day and the “Food intake (food weights in g/day)” value (C57BL/6-Magel2 mice [2]; Day 15, Magel2 (−/+) heterozygous male mice, 0.2 mg/kg IP QD) was 5.9 g/day. For the same compound, the “Food intake (food weights in g/day)” value (C57BL/6-Magel2 mice [2]; Day 15, Magel2 (−/−) homozygous female mice, 0.2 mg/kg IP QD) was 5.2 g/day, the “Food intake (food weights in g/day)” value (C57BL/6-Magel2 mice [2]; Day 17, Magel2 (−/+) heterozygous male mice, 0.2 mg/kg IP QD) was 3.2 g/day and the “Food intake (food weights in g/day)” value (C57BL/6-Magel2 mice [2]; Day 17, Magel2 (−/−) homozygous female mice, 0.2 mg/kg IP QD) was 2.2 g/day. The “Food intake (food weights in g/day)” value (C57BL/6-Magel2 mice [2]; Day 18, Magel2 (−/+) heterozygous male mice, 0.2 mg/kg IP QD) was 2.5 g/day, the “Food intake (food weights in g/day)” value (C57BL/6-Magel2 mice [2]; Day 18, Magel2 (−/−) homozygous female mice, 0.2 mg/kg IP QD) was 3.2 g/day and the “Food intake (food weights in g/day)” value (C57BL/6-Magel2 mice [2]; Day 20, Magel2 (−/+) heterozygous male mice, 0.2 mg/kg IP QD) was 6.2 g/day. The “Food intake (food weights in g/day)” value (C57BL/6-Magel2 mice [2]; Day 20, Magel2 (−/−) homozygous female mice, 0.2 mg/kg IP QD) was 4.6 g/day, the “Food intake (food weights in g/day)” value (C57BL/6-Magel2 mice [2]; Day 21, Magel2 (−/+) heterozygous male mice, 0.2 mg/kg IP QD) was 5.0 g/day and the “Food intake (food weights in g/day)” value (C57BL/6-Magel2 mice [2]; Day 21, Magel2 (−/−) homozygous female mice, 0.2 mg/kg IP QD) was 11.1 g/day. The “Food intake (food weights in g/day)” value (C57BL/6-Magel2 mice [2]; Day −2 (before dosing), Magel2 (−/+) heterozygous male mice) was 5.0 g/day, the “Food intake (food weights in g/day)” value (C57BL/6-Magel2 mice [2]; Day −2 (before dosing), Magel2 (−/−) homozygous female mice) was 3.2 g/day and the “difference in food intake between the groups (in words)” value (C57BL/6-Magel2 mice [2]; treated Magel2 (−/+) and (−/−) groups versus vehicle, 0.2 mg/kg IP QD) was “not a significant difference in food intake”.
